The structures appear in SMILES notation.

Data set [1] concerns L. infantum promastigote forms. Description: Ultrastructural analysis (SEM/TEM) of promastigote forms. It counts as cell-based, Leishmania infantum. To be noted: promastigotes, 1× and 2× IC50 (Amphotericin B 1× IC50), 72 h. The method, then:
Ultrastructural analysis of promastigote and axenic amastigote forms of L. infantum was performed as described by Silva et al., with adaptations. Promastigote and amastigote forms were cultured in modified Schneider’s medium supplemented with 10% fetal bovine serum (FBS), in a BOD incubator at 26 °C and 32 °C, respectively, until reaching the stationary growth phase (72 h). After adjusting cell concentration to 1 × 10^7 cells/mL, samples were incubated with compounds LT-73, LT-75, and amphotericin B at concentrations corresponding to the IC50 and 2× IC50 previously determined, as well as a DMSO control (1% diluted), for 72 h. During incubation, daily microscopic monitoring of cell morphology was performed.
After this period, cells were washed with PBS (phosphate-buffered saline) and fixed in a solution containing 2.5% glutaraldehyde and 4% formaldehyde in 0.1 M phosphate buffer (pH 7.4) for 24 h at 4 °C. For transmission electron microscopy (TEM), cells were post-fixed in 1% osmium tetroxide (OsO4) for 2 h in 0.1 M phosphate buffer (pH 7.2), dehydrated in increasing acetone series (30%, 50%, 70%, 90%, and 3× 100%), embedded in EPON resin, and subjected to ultrathin sectioning using an ultramicrotome. Sections were contrasted with 2% uranyl acetate for 30 min and 2.5% lead citrate for 10 min, then analyzed using a Tecnai G2 Spirit TEM (FEI).
For scanning electron microscopy (SEM), after primary fixation, cells were adhered to coverslips pre-treated with poly-L-lysine for 30 min. Then, cells were washed three times with 0.1 M phosphate buffer (pH 7.2), post-fixed in 1% OsO4 for 2 h, dehydrated in increasing ethanol series (30%, 50%, 70%, 90%, and 3× 100%), subjected to critical point drying using an HCP-2 device (Hitachi (Tokyo, Japan)), and gold-coated (20 nm) using a JFC-1100 device ((JEOL Ltd., Tokyo, Japan)). […]
All images were acquired under standardized laboratory protocols. A minimum of 50 parasites per condition were analyzed by two blinded investigators and no visible precipitation or crystallization occurred during fixation.

The test system of data set [2] is Leishmania infantum promastigote forms (MHOM/BR/BH46). Briefly: In vitro leishmanicidal activity against promastigotes (Neubauer chamber counting). The class given is cell-based. The following applies: for SI (CC50/IC50): CC50 J774 macrophages / IC50 promastigotes; for IC50 / inhibition at 20 µM: Leishmania infantum; for IC50: 72 h, L. infantum promastigotes, linear regression; for inhibition at 20 µM: lowest concentration tested in the promastigote series (20–400 µM). The procedure:
For this study, the Leishmania infantum strain MHOM/BR/BH46 was used. It was maintained by cryopreservation in liquid nitrogen, using a preservation solution containing 10% dimethyl sulfoxide (DMSO) and 90% fetal bovine serum (FBS). For the experiments, the strain was reactivated and maintained in continuous culture in modified Schneider’s Drosophila medium, supplemented with 10% heat-inactivated fetal bovine serum (FBS), at a temperature of 26 °C, with subcultures performed every 72 h. The promastigote form was used for the in vitro assays, with growth observed and monitored through parasite counting using a Neubauer chamber (iNCYTO CChip DHC-N01, Cheonan-Si, Republic of Korea).
The in vitro leishmanicidal activity of compounds LT-70, LT-73, LT-75, LT-89, and amphotericin B was determined as described by Aliança et al., with adaptations. Promastigote forms of L. infantum (MHOM/BR/BH46) were maintained in Schneider’s medium supplemented with 10% fetal bovine serum (FBS), incubated at 26 °C. For experiments, parasites were subcultured and grown for 72 h until reaching stationary phase. Subsequently, they were adjusted to a concentration of 1 × 10^6 parasites/mL. Cultures were then incubated in the presence of the tested compounds (20–400 µM) and Amphotericin B was tested from 0.01 to 1.0 µM in preliminary range-finding assays, confirming an IC50 of 0.04 µM, both prepared in DMSO (final DMSO concentration < 1%), as well as a control containing only the diluent. Analyses were performed in technical triplicate and biological duplicate. Cultures were maintained at 26 °C for 72 h, with daily parasite counts performed using a Neubauer chamber. The median inhibitory concentration (IC50) was determined after 72 h by linear regression using SPSS 25.0 software for Mac. All assays were performed in 24-well flat-bottom plates (2 mL final volume per well), with parasite inoculum verified by Neubauer counting chamber. The compounds LT-73 and LT-75 were selected based on their best leishmanicidal performance and respective selectivity index (SI), calculated as the ratio between the cytotoxic concentration for 50% of host cells (CC50) and the IC50 obtained for parasites. […] IC50 and CC50 values were obtained by linear regression using […]. This method has been validated in our previous thiosemicarbazone publications. Each assay was conducted in triplicate across two independent biological experiments performed on separate days to ensure reproducibility and minimize batch effects. MTT was selected for consistency with the validated thiosemicarbazone protocol by Jacob et al., ensuring methodological coherence with prior data.

The subject of the next data set is peritoneal macrophages. Further details: method as in ref [23] Queiroz et al. To be noted: ref [23] Queiroz et al.; cited from earlier work.
Data set [3] concerns J774 macrophages and Vero cells. Further details: method as in ref [21] Aliança et al. To be noted: ref [21] Aliança et al.; cited from earlier work.
The subject of another data set is J774.A1 macrophages. Description: Cytokine dosage (CBA) in supernatants of uninfected macrophages. To be noted: 1× and 2× CC50, 72 h. It counts as cell-based, Mouse. The method, then:
J774.A1 macrophage lineage cells were cultured in 96-well polystyrene plates containing DMEM medium supplemented with 10% FBS. Cells were incubated with the following concentrations: 1× CC50 and 2× CC50 of compounds LT-73 and LT-75 and amphotericin B, as well as 1% DMSO diluent solution as control, for 72 h. The cells used in these assays were not infected with Leishmania infantum, allowing the evaluation of cytokine modulation and cytotoxicity in uninfected macrophages. After cultivation, 100 µL of culture supernatants were collected and immediately stored at −20 °C for later use in CBA assays (Cytometric Bead Array-BD Biosciences, BD Biosciences, San Jose, CA, USA). This assay utilized a mixture of […] polystyrene beads with different fluorescence intensities, coated with specific antibodies for quantification of cytokines IFN-γ, TNF, IL-10, IL-6, IL-4, IL-2, and IL-17a present in sample supernatants. Cytokine levels were quantified using the BD Cytometric Bead Array (CBA) Mouse Th1/Th2/Th17 kit (Cat. No. 560485, BD Biosciences, San Jose, CA, USA) and analyzed on a BD FACSCalibur™ Flow Cytometer with BD CellQuest PRO Software (BD Biosciences; version 5.1 by the facility). Results are expressed in pg/mL based on standard curves provided by the manufacturer.

For orientation: IC50 means the midpoint of a concentration-inhibition curve. One may read the inhibition as the share of the control response that was lost under treatment. Consider `C[C@@H]1[C@H](O)[C@@H](C)/C=C/C=C/C=C/C=C/C=C/C=C/C=C/[C@H](O[C@@H]2O[C@H](C)[C@@H](O)[C@H](N)[C@@H]2O)C[C@@H]2O[C@](O)(C[C@@H](O)C[C@@H](O)[C@H](O)CC[C@@H](O)C[C@@H](O)CC(=O)O[C@H]1C)C[C@H](O)[C@H]2C(=O)O` [Amphotericin B, reference compound], for which the TEM ultrastructural alterations result in data set [1] was “membrane rupture, chromatin condensation, and mitochondrial swelling”. In data set [2], the “SI (CC50/IC50)” value was found to be 350, half-maximal inhibition (IC50) required 0.04 µM and 20 µM produced 100% inhibition. Besides, the cytotoxicity with peritoneal macrophages was 74.86 µM. The cytotoxicity in data set [3] is given as 74.7 µM.
Regarding `S=C(N/N=C/c1c[nH]c2ncccc12)Nc1ccccc1` [LT-73], the TEM ultrastructural alterations entry in data set [1] is “disorganization of the plasma membrane, mitochondrial swelling, chromatin condensation, and the presence of numerous vacuoles”. For the same compound, in the data set with J774.A1 macrophages, the IFN-γ production entry is on record as “no cytokine production was observed” and the IL-6 secretion entry is recorded as “IL-6 production was observed only at the CC50 concentration”. In data set [2], the “SI (CC50/IC50)” value was over 5.8, the IC50 is 10 to 14 µM and the inhibition at 20 µM was found to be 100%.
As to `N#Cc1ccc2[nH]cc(/C=N/NC(=S)Nc3ccc(Cl)cc3)c2c1` [LT-75], the TEM ultrastructural alterations entry in data set [1] was “extensive damage to the plasma membrane and cytoskeleton”. Also, in the data set with J774.A1 macrophages, the IFN-γ production result is recorded as “induced the production of the cytokine IFN-γ” and the IL-6 secretion result is given as “discrete elevation detected at 1× LT-75”. Besides, in data set [2], the “SI (CC50/IC50)” value was over 7.1, the IC50 fell in the range of 10 to 14 µM and the inhibition at 20 µM came to 100%.
